We go through 4 molecules from patent US20250269093A1, “METHODS OF ENHANCING ANTIMICROBIAL EFFICACY OF LOCAL ANESTHETICS” (Chinook Contract Research Inc., priority 2023, published 2025).

One assay has as its system P. aeruginosa ATCC 15442. As to the kind of experiment: Broth microdilution assay (MIC). Format: cell-based, Pseudomonas aeruginosa. Particulars: for MIC: broth microdilution, 16-24 hours at 37° C.; for MIC +1 mg/mL LD: titrated in a constant concentration of 1 mg/mL lidocaine base. How it is done:
(§1) Broth Microdilution Assay: A stock solution of each test article was serially diluted in a 96-well plate for a final volume of 0.1 mL per well. […] Turbidity was assessed after 16-24 hours at 37° C. (100 rpm).
(§2) Incubated at 37° C. at 200 rpm for approximately 2 hours to fully dissolve the powder. Filter sterilized.
(§3) Prepared a 2× stock of lidocaine HCl by dissolving 500 mg per 10 mL OSB (=50 mg/mL). Filter sterilized.
(§4) Serially diluted (2-fold series) the contents of rows B to G: Removed 100 μL from row B to row C and mixed by pipetting up and down at least 3 times. Discarded the tips.
(§5) For bacteria: Mixed 10 μL O/N with 990 μL OSB for ˜10^7 CFU/mL, then mixed 100 μL of the ˜10^7 CFU/mL culture with 9.90 mL BGM for ˜10^5 CFU/mL. • b. For yeast: Mixed 100 μL O/N with 9.90 mL BGM for ˜10^5 CFU/mL.
(§6) Immediately poured the ˜10^5 CFU/mL inoculum into a sterile reagent reservoir and used a multichannel pipettor to aliquot 100 μL into each well of the 96-well plates, excluding row H. Mixed by pipetting up and down at least 3 times. Added uninoculated BGM to row H.
(§7) Sealed the plates in sandwich bags and incubated at 37±1° C. for 16-24 hours (100 rpm).
(§8) Visually scored for growth, which appeared as turbidity or as a deposit of cells at the bottom of a well.
(§9) Determined the MIC (minimum inhibitory concentration) for each organism. The MIC was defined as the minimum concentration that inhibited growth of the organism.
(§10) MIC determination from Broth Microdilution: MIC results were determined following the overnight incubation of the broth microdilution plates. Ensured that the SC wells were free of growth and that the GC wells were positive for growth. To determine the minimum inhibitory concentration (MIC) values, checked for turbidity in the wells of the challenge plate and scored. The MIC was defined as the minimum concentration that inhibited visible growth of the organism.
On the technique in general: In broth dilution the organism is exposed to a series of concentrations in liquid medium.

In assay [1] the test system is E. coli ATCC 25922. Briefly: Broth microdilution assay (MIC). Format: cell-based, Escherichia coli. Particulars: for MIC: broth microdilution, 16-24 hours at 37° C.; for MIC +1 mg/mL LD: titrated in a constant concentration of 1 mg/mL lidocaine base. The method, then:
as §1, §2, §3, §4, §5, §6, §7, §8, §9, §10

The test system of assay [2] is S. epidermidis ATCC 35984. Briefly: Broth microdilution assay (MIC). Format: cell-based, Staphylococcus epidermidis. The following applies: for MIC: broth microdilution, 16-24 hours at 37° C.; for MIC +1 mg/mL LD: titrated in a constant concentration of 1 mg/mL lidocaine base. The method, then:
as §1, §2, §3, §4, §5, §6, §7, §8, §9, §10

Another assay concerns C. albicans ATCC 10231. Briefly: Broth microdilution assay (MIC). Particulars: for MIC: broth microdilution, 16-24 hours at 37° C.; for MIC +1 mg/mL LD: titrated in a constant concentration of 1 mg/mL lidocaine base. It counts as cell-based, Candida albicans. The method, then:
as §1, §2, §3, §4, §5, §6, §7, §8, §9, §10

Assay [3] has as its system S. aureus ATCC 29213. Briefly: Broth microdilution assay (MIC). Format: cell-based, Staphylococcus aureus. The following applies: for MIC: broth microdilution, 16-24 hours at 37° C.; for MIC +1 mg/mL LD: titrated in a constant concentration of 1 mg/mL lidocaine base. The method, then: as §1, §2, §3, §4, §5, §6, §7, §8, §9, §10
Assay [4] concerns all seven tested organisms. Briefly: Broth microdilution assay (MIC), summary over the panel. Format: cell-based. The following applies: for MIC (plus lidocaine base): all seven organisms, constant concentration of 1 mg/mL lidocaine base. How it is done: as §1
Prepared a 2× stock solution of lidocaine by dissolving 20 mg of free-base lidocaine per 10 mL of OSB (=2 mg/mL). Incubated at 37° C. at 200 rpm for approximately 2 hours to fully dissolve the powder. Filter sterilized.
as §3
Prepared 2× stock (=8% v/v) of DMSO or NMP by mixing 800 μL of either with 9.2 mL of OSB or with OSB plus 2 mg/mL lidocaine base.
Aliquoted 200 μL of the 2× stock of LD-HCl, LD base, DMSO, NMP, DMSO+LD base, or NMP+LD base into wells B1-2, B3-4, B5-6, B7-8, B9-10, or B11-12, respectively.
as §4, §5, §6, §7, §8, §9
MIC determination from Broth Microdilution: MIC results were determined following the overnight incubation of the broth microdilution plates. […] To determine the minimum inhibitory concentration (MIC) values, checked for turbidity in the wells of the challenge plate and scored. […]

The test system of a further assay is E. faecalis ATCC 51575. Briefly: Broth microdilution assay (MIC). Format: cell-based, Enterococcus faecalis. The following applies: for MIC: broth microdilution, 16-24 hours at 37° C.; for MIC +1 mg/mL LD: titrated in a constant concentration of 1 mg/mL lidocaine base. The method, then:
as §1, §2, §3, §4, §5, §6, §7, §8, §9, §10

The test system of a further assay is P. mirabilis ATCC 29906. As to the kind of experiment: Broth microdilution assay (MIC). Particulars: for MIC: broth microdilution, 16-24 hours at 37° C.; for MIC +1 mg/mL LD: titrated in a constant concentration of 1 mg/mL lidocaine base. Format: cell-based, Proteus mirabilis. The method, then: as §1, §2, §3, §4, §5, §6, §7, §8, §9, §10
Assay [5] has as its system E. coli ATCC 25922. The following applies: cited from earlier work.
For assay [6], the system named is S. aureus ATCC 29213. The following applies: cited from earlier work.
For a further assay, the system named is P. aeruginosa ATCC 27853. The following applies: cited from earlier work.

Counter-ions that a name gives are not always drawn. Like-named read-outs stand apart in the source and are kept apart here.

In the case of `C[S+](C)[O-]` [DMSO, Dimethyl Sulfoxide], the MIC (in the assay on P. aeruginosa ATCC 15442; in the assay with E. coli ATCC 25922 [1]; in assay [2]; in the assay on C. albicans ATCC 10231; against S. aureus ATCC 29213 [3]; against E. faecalis ATCC 51575) was more than 4.00 % v/v each time. Further, the MIC against P. mirabilis ATCC 29906 is given as more than 4.00 % v/v. The “MIC +1 mg/mL LD” value (in the assay on P. aeruginosa ATCC 15442; in the assay on E. coli ATCC 25922 [1]; in assay [2]; in the assay with C. albicans ATCC 10231; with S. aureus ATCC 29213 [3]; in the assay on E. faecalis ATCC 51575) was more than 4.00 % v/v each time. In addition, in the assay on P. mirabilis ATCC 29906, the “MIC +1 mg/mL LD” value is on record as more than 4.00 % v/v. For the same molecule, the “MIC (plus lidocaine base)” value in assay [4] is more than 4 % v/v.
For the molecule `CCN(CC)CC(=O)Nc1c(C)cccc1C` [LD-B, Free base lidocaine], the MIC (in the assay with P. aeruginosa ATCC 15442; with E. coli ATCC 25922 [1]; in [2]; with C. albicans ATCC 10231; in the assay on S. aureus ATCC 29213 [3]; with E. faecalis ATCC 51575) was more than 1.00 mg/mL throughout. In the assay on P. mirabilis ATCC 29906, this molecule gave an MIC of more than 1.00 mg/mL.
On to `CCN(CC)CC(=O)Nc1c(C)cccc1C` [LD-HCl, Lidocaine hydrochloride], for which the MIC was found to be 25 mg/mL in the assay with P. aeruginosa ATCC 15442 (Pseudomonas aeruginosa, ATCC15442, read-out: MIC); 6.25 mg/mL with E. coli ATCC 25922 [1] (Escherichia coli, ATCC25922, read-out: MIC); 25 mg/mL in assay [2] (Staphylococcus epidermidis, ATCC35984, read-out: MIC); 12.5 mg/mL in the assay on C. albicans ATCC 10231 (Candida albicans, ATCC10231, read-out: MIC); 12.5 mg/mL in the assay with S. aureus ATCC 29213 [3] (Staphylococcus aureus, ATCC29213, read-out: MIC); 25 mg/mL in the assay on E. faecalis ATCC 51575 (Enterococcus faecalis, ATCC51575, read-out: MIC). Moreover, the MIC in the assay with P. mirabilis ATCC 29906 (Proteus mirabilis, ATCC29906, read-out: MIC) is 12.5 mg/mL. Moreover, the “MIC (published literature)” value is given as 5.00 mg/mL with E. coli ATCC 25922 [5], 20.0 mg/mL in the assay on S. aureus ATCC 29213 [6] and more than 20.0 mg/mL in the assay on P. aeruginosa ATCC 27853.
Turning to `CN1CCCC1=O` [NMP, n-methyl-2-pyrrolidone], the MIC in the assay with P. aeruginosa ATCC 15442 is 4.00 % v/v; against E. coli ATCC 25922 [1], 4.00 % v/v; in assay [2], 4.00 % v/v; in the assay with C. albicans ATCC 10231 it was 4.00 % v/v; in the assay with S. aureus ATCC 29213 [3] it was 4.00 % v/v; in [4] (for all seven tested organisms, maximum challenge concentration 4% v/v), 4 % v/v. In addition, the MIC against E. faecalis ATCC 51575 and with P. mirabilis ATCC 29906 was 4.00 % v/v in each case. In addition, the “MIC +1 mg/mL LD” value (against P. aeruginosa ATCC 15442; against E. coli ATCC 25922 [1]; in assay [2]; in the assay on C. albicans ATCC 10231; with S. aureus ATCC 29213 [3]; against E. faecalis ATCC 51575) was 4.00 % v/v throughout. The “MIC +1 mg/mL LD” value in the assay on P. mirabilis ATCC 29906 is 4.00 % v/v. Besides, in assay [4], the “MIC (plus lidocaine base)” value turned out to be 4 % v/v.
